In patent US9751854B2 (Millennium Pharmaceuticals, Inc., priority 2014, dated 2017) one finds IC50 data, which are given here for 28 compounds.

The target of this assay is human VPS34 (Homo sapiens (Human), UniProt Q8NEB9). In words: Human VPS34 enzyme assay (Adapta TR-FRET ADP detection). The conditions noted are these: IC50 range class. It is filed as biochemical. A general note: In TR-FRET formats the signal depends on donor and acceptor labels being close together.
Chain of human VPS34 (Q8NEB9 whole entry): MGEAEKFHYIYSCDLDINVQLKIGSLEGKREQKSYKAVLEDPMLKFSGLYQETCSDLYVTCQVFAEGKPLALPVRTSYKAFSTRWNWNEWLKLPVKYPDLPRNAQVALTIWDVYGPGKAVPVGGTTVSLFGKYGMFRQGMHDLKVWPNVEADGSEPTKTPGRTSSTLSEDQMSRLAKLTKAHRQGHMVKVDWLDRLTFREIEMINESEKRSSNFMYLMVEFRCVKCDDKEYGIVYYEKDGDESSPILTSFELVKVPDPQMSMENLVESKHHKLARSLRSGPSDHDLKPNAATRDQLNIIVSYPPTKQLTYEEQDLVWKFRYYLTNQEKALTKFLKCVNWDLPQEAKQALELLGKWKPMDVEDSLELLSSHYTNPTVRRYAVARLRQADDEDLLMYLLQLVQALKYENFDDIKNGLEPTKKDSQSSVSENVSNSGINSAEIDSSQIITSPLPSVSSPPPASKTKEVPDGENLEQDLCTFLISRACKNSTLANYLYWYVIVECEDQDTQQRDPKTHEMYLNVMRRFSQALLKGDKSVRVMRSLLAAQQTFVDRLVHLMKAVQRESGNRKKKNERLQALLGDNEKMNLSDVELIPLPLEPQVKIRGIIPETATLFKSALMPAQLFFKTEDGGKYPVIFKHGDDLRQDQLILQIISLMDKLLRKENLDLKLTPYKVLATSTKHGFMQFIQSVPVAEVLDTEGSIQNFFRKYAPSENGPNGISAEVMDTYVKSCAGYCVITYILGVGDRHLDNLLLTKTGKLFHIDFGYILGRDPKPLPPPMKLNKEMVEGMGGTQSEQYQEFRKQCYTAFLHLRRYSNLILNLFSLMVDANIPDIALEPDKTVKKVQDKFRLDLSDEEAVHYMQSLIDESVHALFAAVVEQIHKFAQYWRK
`CC(=O)Nc1cc(-c2cnc(N)c(C(=O)Nc3cc(C)cnn3)c2)ccn1` [Compound I-121, 2′-acetamido-6-amino-N-(5-methylpyridazin-3-yl)-3,4′-bipyridine-5-carboxamide]: the IC50 fell in the range of 50 to 100 nM.
`CC(=O)Nc1cc(-c2cncc(C(C)=O)c2)ccn1` [Compound I-194, N-(5-acetyl-3,4′-bipyridin-2′-yl)acetamide] displayed an IC50 of over 100 nM.
The same measure for `COc1ncc(-c2ccnc(NC(C)=O)c2)c(C)c1NS(=O)(=O)c1ccc(F)cc1F` [Compound I-248, N-(5-{[(2,4-difluorophenyl)sulfonyl]amino}-6-methoxy-4-methyl-3,4′-bipyridin-2′-yl)acetamide]: 10 to 50 nM; for `CC(=O)Nc1cc(-c2cncc(S(=O)(=O)N3CCC(F)(F)C3)c2)ccn1` [Compound I-118, N-{5-[(3,3-difluoropyrrolidin-1-yl)sulfonyl]-3,4′-bipyridin-2′-yl}acetamide]: 10 to 50 nM.
The figure for `CCCCS(=O)(=O)Nc1cc(-c2ccnc(NC(C)=O)c2)cnc1C` [Compound I-373, N-{5-[(butylsulfonyl)amino]-6-methyl-3,4′-bipyridin-2′-yl}acetamide] is 10 to 50 nM; for `CC(=O)Nc1cc(-c2cnc(C)c(S(=O)(=O)Nc3ccc(F)cc3F)c2)ccn1` [Compound I-353, N-(5-(N-(2,4-difluorophenyl)sulfamoyl)-6-methyl-[3,4′-bipyridin]-2′-yl)acetamide] it is 10 to 50 nM; for `CN(C)S(=O)(=O)Nc1cc(-c2ccnc(Nc3ccnc(C4CC4)n3)c2)cn2nccc12` [Compound I-427, N′-(6-{2-[(2-cyclopropylpyrimidin-4-yl)amino]pyridin-4-yl}pyrazolo[1,5-a]pyridin-4-yl)-N,N-dimethylsulfuric diamide] it is under 10 nM.
The compound `CC(=O)Nc1cc(-c2cnc(F)c(NS(=O)(=O)c3ccc(F)cc3F)c2)ccn1` [Compound I-164, N-(5-{[(2,4-difluorophenyl)sulfonyl]amino}-6-fluoro-3,4′-bipyridin-2′-yl)acetamide] yielded a half-maximal inhibitory concentration (IC50) of under 10 nM.
On to `CC(=O)Nc1cc(-c2cnc(Cl)c(C(=O)N3CCC3)c2)c(C)cn1` [Compound I-434, N-[5-(azetidin-1-ylcarbonyl)-6-chloro-5′-methyl-3,4′-bipyridin-2′-yl]acetamide], for which the half-inhibitory concentration (IC50) is over 100 nM.
`CC(=O)Nc1cc(-c2cnc(N)c(S(=O)(=O)N(C)C)c2)ccn1` [Compound I-119, N-[6-amino-5-(dimethylsulfamoyl)-3,4′-bipyridin-2′-yl]acetamide]: the half-maximal inhibitory concentration (IC50) was under 10 nM.
`CC(=O)Nc1cc(-c2cnc(N)c(S(=O)(=O)NCC3CC3)c2C)ccn1` [Compound I-49, N-{6-amino-5-[(cyclopropylmethyl)sulfamoyl]-4-methyl-3,4′-bipyridin-2′-yl}acetamide]: the IC50 fell in the range of 50 to 100 nM.
As to `Cc1nccc(Nc2cc(-c3cnc(C)c(C(=O)N(C)C)c3)ccn2)n1` [Compound I-266, N,N,6-trimethyl-2′-[(2-methylpyrimidin-4-yl)amino]-3,4′-bipyridine-5-carboxamide], the IC50 was 10 to 50 nM.
Regarding `Cc1nccc(Nc2cc(-c3cnc(O)c(S(=O)(=O)NC4CCC4)c3)ccn2)n1` [Compound I-279, N-cyclobutyl-6-hydroxy-2′-[(2-methylpyrimidin-4-yl)amino]3,4′-bipyridine-5-sulfonamide], the IC50 was in the range of 10 to 50 nM.
On to `CC(=O)Nc1cc(-c2cnc(C)c(NS(=O)(=O)c3ccsc3)c2)ccn1` [Compound I-203, N-{6-methyl-5-[(3-thienylsulfonyl)amino]-3,4′-bipyridin-2′-yl}acetamide], for which the 50% inhibitory concentration (IC50) is under 10 nM.
The compound `Cc1ncc(-c2ccnc(NC(=O)C3CC3)c2)cc1NS(=O)(=O)c1ccc(Cl)cc1F` [Compound I-433, N-(5-{[(4-chloro-2-fluorophenyl)sulfonyl]amino}-6-methyl-3,4′-bipyridin-2′-yl)cyclopropanecarboxamide] showed a 50% inhibitory concentration (IC50) of 10 to 50 nM.
With `CC(=O)Nc1cc(-c2cnc(N(C)C)c(S(=O)(=O)Nc3ccc(F)cc3F)c2)ccn1` [Compound I-491, N-{5-[(2,4-difluorophenyl)sulfamoyl]-6-(dimethylamino)-3,4′-bipyridin-2′-yl}acetamide], the IC50 is 10 to 50 nM.
`CC(=O)Nc1cc(-c2cnc(Cl)c(NS(=O)(=O)c3ccc(F)cc3Cl)c2C)ccn1` [Compound I-290, N-(6-chloro-5-{[(2-chloro-4-fluorophenyl)sulfonyl]amino}-4-methyl-3,4′-bipyridin-2′-yl)acetamide] had an IC50 of 10 to 50 nM.
Consider `CC(=O)Nc1cc(-c2cncc(N(C)S(=O)(=O)N(C)C)c2)ccn1` [Compound I-458, N-{5-[(dimethylsulfamoyl)(methyl)amino]-3,4′-bipyridin-2′-yl}acetamide], for which the half-inhibitory concentration (IC50) is 10 to 50 nM.
`CC(=O)Nc1cc(-c2cnc(C)c(NS(=O)(=O)c3cccc4ccccc34)c2)ccn1` [Compound I-78, N-[6-methyl-5-[(1-naphthylsulfonyl)amino]-3,4′-bipyridin-2′-yl}acetamide] came in with an IC50 of under 10 nM.
Regarding `CC(=O)Nc1cc(-c2cnc(C)c(NS(=O)(=O)c3cc(C)ccc3F)c2)ccn1` [Compound I-28, N-(5-{[(2-fluoro-5-methylphenyl)sulfonyl]amino}-6-methyl-3,4′-bipyridin-2′-yl)acetamide], the IC50 was under 10 nM.
Take `CCOC(=O)Nc1cc(-c2cnc(C)c(NS(=O)(=O)c3ccc(Cl)cc3F)c2)ccn1` [Compound I-456, ethyl (5-{[(4-chloro-2-fluorophenyl)sulfonyl]amino}-6-methyl-3,4′-bipyridin-2′-yl}carbamate]: the IC50 is under 10 nM.
Compound `CC(=O)Nc1cc(-c2cnc(C)c(NS(=O)(=O)c3cc(C)ccc3C)c2)ccn1` [Compound I-178, N-(5-{[(2,5-dimethylphenyl)sulfonyl]amino}-6-methyl-3,4′-bipyridin-2′-yl)acetamide] returned an IC50 of under 10 nM.
The figure for `CC(=O)Nc1cc(-c2cnc(C)c(NS(=O)(=O)CC(F)F)c2)ccn1` [Compound I-412, N-(5-{[(2,2-difluoroethyl)sulfonyl]amino}-6-methyl-3,4′-bipyridin-2′-yl)acetamide] is 10 to 50 nM; for `Cc1nccc(Nc2cc(-c3cnc(C)c(C(=O)N4CCCC4)c3)ccn2)n1` [Compound I-315, {6-methyl-2′-[(2-methylpyrimidin-4-yl)amino]-3,4′-bipyridin-5-yl}(pyrrolidin-1-yl)methanone] it is 10 to 50 nM; for `CC(=O)Nc1cc(-c2cncc(S(=O)(=O)N3CCCC3)c2)ccn1` [Compound I-47, N-[5-(pyrrolidin-1-ylsulfonyl)-3,4′-bipyridin-2′-yl]acetamide] it is 10 to 50 nM.
The compound `CC(=O)Nc1cc(-c2cncc(S(=O)(=O)NC3CCC3)c2)ccn1` [Compound I-396, N-[5-(cyclobutylsulfamoyl)-3,4′-bipyridin-2′-yl]acetamide] had a concentration for half-maximal inhibition (IC50) of 10 to 50 nM.
`CC(=O)Nc1cc(-c2cnc(Cl)c(N3CCCS3(=O)=O)c2C)ccn1` [Compound I-425, N-[6-chloro-5-(1,1-dioxidoisothiazolidin-2-yl)-4-methyl-3,4′-bipyridin-2′-yl]acetamide] displayed a 50% inhibitory concentration (IC50) of 10 to 50 nM.
`CN(C)c1ncc(-c2ccnc(Nc3ccncn3)c2)cc1C(=O)N(C)C12CC(C1)C2` [Compound I-284, N-(bicyclo[1.1.1]pent-1-yl)-6-(dimethylamino)-N-methyl-2′-(pyrimidin-4-ylamino]-3,4′-bipyridine-5-carboxamide] returned an IC50 of 10 to 50 nM.

A word on the IC50: it is the concentration that gives 50% inhibition. A low value points to inhibition by little substance.
